Test results as given in US9487470B2, “4-((substituted phenyl) difluoromethyl) phenoxy carboxylic acid derivative, and preparation method and uses thereof” (Zhejiang Hisun Pharmaceutical Co., Ltd., priority 2012, dated 2016).

What was measured:
[1] = test system: hyperlipoidemia model of Goldenhamsters (blood plasma TC, TG, HDL-C, LDL-C); assay: Pharmacological test group 1: effects on blood lipid levels of Goldenhamsters in a hyperlipoidemia model; format: in vivo; settings: for HDL-C, after administration / LDL-C, after administration / TC, after administration / TG, after administration: 40 mg/kg intragastric, 1 week, high-lipid feed continued, asterisks = P vs before administration
Excerpt: Animals: 134 male Goldenhamsters, aged 8 weeks, body weight 80-100 g, provided by Vital River Laboratories, Beijing. […] Kits: The kits for total cholesterol (TC), triglyceride (TG), and high density lipoprotein cholesterol (HDL-C) were provided by SYSMEX, and the kits for low density lipoprotein cholesterol (LDL-C) were provided by Shanghai Kehua Bio-engineering Co., Ltd. Apparatus: SYSMEX Automatic Biochemistry Analyzer, Bechman centrifuge, Setoris balance. The animals were acclimatized and fed for 1 week, ad lib, light cycle was 10 h/14 h, and then feeds with high lipid content were fed to the animals (formulation: 0.3% cholesterol, 20% palm oil, and 79.7% basic feeds). The animals were fed for 10 days, and were fasted at 4:00 pm on the 10th day (fasted for 16 h). On the 11th day, the animals were anaesthetized with ethyl ether, weighted, and then 0.5 ml blood was collected from vena orbitalis posterior. The blood was anticoagulated with heparin, and was centrifugated at 5000 rpm for 10 min. The blood plasma was taken, and the levels of TC, TG, HDL-C, and LDL-C in blood plasma were determined using automatic biochemistry analyzer. The animals were acclimatized and fed for 1 week, ad lib, light cycle was 10 h/14 h, and then feeds with high lipid content were fed to the animals (formulation: 0.3% cholesterol, 20% palm oil, and 79.7% basic feeds). The animals were fed for 2 weeks, and were fasted at 4:00 pm on the […] (fasted for 16 h). On the 22nd day, the animals were anaesthetized with ethyl ether, weighted, and then 0.5 ml blood was collected from vena orbitalis posterior. The blood was anticoagulated with heparin, and was centrifugated at 5000 rpm for 10 min. The blood plasma was taken, and the levels of TC, TG, HDL-C, and LDL-C in blood plasma were determined using automatic biochemistry analyzer. […] During the administration, feeds with high lipid content were continuously fed to the animals. The animals were fed for 1 week, and were fasted at 4:00 pm on the 7th day. On the 8th day, the animals were anaesthetized with ethyl ether, weighted, and then 0.5 ml blood was collected from vena orbitalis posterior. The blood was anticoagulated with heparin, and was centrifugated at 5000 rpm for 10 min. The blood plasma was taken, and the levels of TC, TG, HDL-C, and LDL-C in blood plasma were determined using automatic biochemistry analyzer. The results were represented by x±s, and t test was employed for comparing the results obtained before and after administration.

[2] = Solubility in water (remark on the test drugs); format: physicochemical; settings: formulated with 20% solutol
[3] = test system: hyperlipoidemia model of Goldenhamsters (blood plasma TC, HDL-C, LDL-C); assay: Pharmacological test group 2: effects on blood lipid levels of Goldenhamsters in hyperlipoidemia model; format: in vivo; settings: for effect on HDL-C, in comparison with the results before administration (in words) / effect on LDL-C, in comparison with the results before administration (in words) / effect on TC, in comparison with the results before administration (in words): t test after vs before administration; for HDL-C, before administration / LDL-C, before administration / TC, before administration: baseline of the group before administration, high-lipid feed 2 weeks, 6 animals
Excerpt: (§1) Animals: 120 male Goldenhamsters, aged 8 weeks, body weight 80-100 g, provided by Vital River Laboratories, Beijing.
Kits: The kits for total cholesterol (TC) and high density lipoprotein cholesterol (HDL-C) were provided by SYSMEX, and the kits for low density lipoprotein cholesterol (LDL-C) were provided by Shanghai Kehua Bio-engineering Co., Ltd.
(§2) Apparatus: SYSMEX Automatic Biochemistry Analyzer, Bechman centrifuge, Setoris balance.
(§3) The animals were acclimatized and fed for 1 week, ad lib, light cycle was 10 h/14 h, and then feeds with high lipid content were fed to the animals (formulation: 0.3% cholesterol, 20% palm oil, and 79.7% basic feeds). The animals were fed for 2 weeks, and were fasted at 4:00 pm on the 14th day (fasted for 16 h). On the 15th day, the animals were anaesthetized with ethyl ether, weighted, and then 0.5 ml blood was collected from vena orbitalis posterior. The blood was anticoagulated with heparin, and was centrifugated at 5000 rpm for 10 min. The blood plasma was taken, and the levels of TC, HDL-C, and LDL-C in blood plasma were determined using automatic biochemistry analyzer.
(§4) During the administration, feeds with high lipid content were continuously fed to the animals. The animals were fed for 1 week, and were fasted at 4:00 pm on the 7th day. On the 8th day, the animals were anaesthetized with ethyl ether, weighted, and then 0.5 ml blood was collected from vena orbitalis posterior. The blood was anticoagulated with heparin, and was centrifugated at 5000 rpm for 10 min. The blood plasma was taken, and the levels of TC, HDL-C, and LDL-C in blood plasma were determined using automatic biochemistry analyzer.
(§5) The results were represented by x±s, and t test was employed for comparing the results obtained before and after administration.

[4] = test system: hyperlipoidemia model of Goldenhamsters (blood plasma TC, TG, HDL-C, LDL-C); assay: Pharmacodynamic test group 3: effects on blood lipid levels of Goldenhamsters in a hyperlipoidemia model; format: in vivo; settings: for HDL-C, after administration / LDL-C, after administration / TC, after administration / TG, after administration: 40 mg/kg intragastric, 1 week, high-lipid feed continued, asterisks = P vs before administration; for HDL-C, after administration / LDL-C, after administration / TC, after administration / TG, after administration / HDL-C, before administration / LDL-C, before administration / TC, before administration / TG, before administration: blood plasma, x±s; for effect on HDL-C, in comparison with the results before administration (in words) / effect on LDL-C, in comparison with the results before administration (in words) / effect on TC, in comparison with the results before administration (in words) / effect on TG, in comparison with the results before administration (in words): t test after vs before administration; for HDL-C, before administration / LDL-C, before administration / TC, before administration / TG, before administration: baseline of the group before administration, high-lipid feed 2 weeks, 6 animals
Excerpt: as §1
Kits: The kits for total cholesterol (TC), triglyceride (TG), and high density lipoprotein cholesterol (HDL-C) were provided by SYSMEX, and the kits for low density lipoprotein cholesterol (LDL-C) were provided by Shanghai Kehua Bio-engineering Co., Ltd.
as §2
as §3, with “pm of” for “pm on”, “h). At” for “h). On”, “TC, TG,” for “TC,”
as §4, with “pm of” for “pm on”, “day. At” for “day. On”, “TC, TG,” for “TC,”
as §5

[5] = background statement; cited from earlier work
[6] = 40 mg/kg, t test after vs before administration
[7] = 40 mg/kg intragastric, 1 week, high-lipid feed continued, blood plasma, x±s, asterisks = P vs before administration
[8] = baseline of the group before administration, high-lipid feed, blood plasma, x±s, 6 animals

Row | solubility in water [2] | Compound | regulating effects on the levels of blood lipid (conclusion from table 2) ([1]; 40 mg/kg) | HDL-C, after administration ([1]; blood plasma, x±s) | LDL-C, after administration ([1]; blood plasma, x±s) | TC, after administration ([1]; blood plasma, x±s) | TG, after administration ([1]; blood plasma, x±s) | effect on HDL-C, in comparison with the results before administration (in words) [1, 6] | effect on TG, in comparison with the results before administration (in words) [1, 6] | LDL-C, after administration [3, 7] | effect on HDL-C, in comparison with the results before administration (in words) ([3]; 40 mg/kg) | effect on LDL-C, in comparison with the results before administration (in words) ([3]; 40 mg/kg) | effect on TC, in comparison with the results before administration (in words) ([3]; 40 mg/kg) | HDL-C, before administration ([3]; blood plasma, x±s) | LDL-C, before administration ([3]; blood plasma, x±s) | TC, before administration ([3]; blood plasma, x±s) | blood lipid-regulating effects (conclusion from table 4) ([4]; 40 mg/kg) | HDL-C, after administration [4] | LDL-C, after administration [4] | TC, after administration [4] | TG, after administration [4] | further results
1 | insoluble | CC(C)OC(=O)C(C)(C)Oc1ccc(C(F)(F)c2ccc(Cl)cc2)cc1 [HS003-004, isopropyl 2-(4-((4-chlorophenyl)difluoromethyl)phenoxy)-2-methylpropionate] | tend to the effects of significantly decreasing TG, TC, and LDL-C | 3.7 ± 0.31 | 1.27 ± 0.26 | 9.16 ± 1.22 | 1.30 ± 0.23 | increases | significantly decreases | 1.97 ± 0.66 | increases | significantly decreases | significantly decreases | 1.61 ± 0.21 | 3.26 ± 1.58 | 13.82 ± 2.69 | excellent blood lipid-regulating effects | 3.16 ± 0.24 | 1.86 ± 0.78 | 9.49 ± 1.82 | 2.22 ± 1.61 | effect on TC, in comparison with the results before administration (in words) [1, 6]: significantly decreases; blood lipid-regulating effects (conclusion from table 3) ([3]; 40 mg/kg): excellent blood lipid-regulating effects; HDL-C, after administration [3, 7]: 1.83 ± 0.18; TC, after administration [3, 7]: 9.86 ± 0.83; therapeutic effect compared with fenofibrate (conclusion from table 3) ([3]; 40 mg/kg, fenofibrate 40 mg/kg): outstanding therapeutic effects, and are superior to fenofibrate; therapeutic effect compared with fenofibrate (conclusion from table 4) ([4]; 40 mg/kg, fenofibrate 40 mg/kg): outstanding therapeutic effects, and are superior to fenofibrate; effect on HDL-C, in comparison with the results before administration (in words) ([4]; 40 mg/kg): increases; effect on LDL-C, in comparison with the results before administration (in words) ([4]; 40 mg/kg): significantly decreases; effect on TC, in comparison with the results before administration (in words) ([4]; 40 mg/kg): significantly decreases; effect on TG, in comparison with the results before administration (in words) ([4]; 40 mg/kg): significantly decreases; HDL-C, before administration [4]: 2.54 ± 0.22; LDL-C, before administration [4]: 3.54 ± 0.71; TC, before administration [4]: 12.68 ± 1.8; TG, before administration [4]: 3.94 ± 1.07
2 | insoluble | CC(C)OC(=O)C(C)(C)Oc1ccc(C(F)(F)c2ccccc2)cc1 [HS003-008, Isopropyl 2-(4-(phenyldifluoromethyl)phenoxy)-2-methylpropionate] | tend to the effects of significantly decreasing TG, TC, and LDL-C | 3.46 ± 0.26 | 1.0 ± 0.45 | 9.85 ± 1.48 | 1.22 ± 0.84 |  | significantly decreases |  |  |  |  |  |  |  | excellent blood lipid-regulating effects | 3.4 ± 0.11 | 2.11 ± 0.89 | 10.84 ± 1.83 | 2.49 ± 0.99 | effect on LDL-C, in comparison with the results before administration (in words) [1, 6]: significantly decreases; effect on HDL-C, in comparison with the results before administration (in words) ([4]; 40 mg/kg): increase; effect on LDL-C, in comparison with the results before administration (in words) ([4]; 40 mg/kg): significantly decrease; effect on TC, in comparison with the results before administration (in words) ([4]; 40 mg/kg): significantly decrease; effect on TG, in comparison with the results before administration (in words) ([4]; 40 mg/kg): significantly decrease; HDL-C, before administration [4]: 2.86 ± 0.14; LDL-C, before administration [4]: 3.18 ± 0.81; TC, before administration [4]: 12.85 ± 2; TG, before administration [4]: 3.93 ± 1.09
3 |  | fenofibrate [reference compound] |  | 4.11 ± 0.15 | 1.15 ± 0.3 |  | 1.13 ± 0.47 | increases | significantly decreases | 2.45 ± 0.8 | increases | significantly decrease | significantly decrease | 1.46 ± 0.29 | 4.24 ± 1.51 | 13.74 ± 2.71 |  |  |  |  |  | HDL-C, before administration [1, 8]: 3.16 ± 0.24; LDL-C, before administration [1, 8]: 1.35 ± 0.25; TG, before administration [1, 8]: 2.39 ± 1; adverse effects to gastrointestinal tract [5]: significant adverse effects to gastrointestinal tract
